Source: patent US7432276B2, “ABCA1 elevating compounds” (CV Therapeutics, Inc., priority 2005, dated 2008)

Tested on: ABCA1 mRNA
Assay: ABCA1 mRNA induction in THP-1 cells, QuantiGene branched DNA assay
Format: cell-based
Details: 10 μM test compound, 18-20 hours
Method in brief: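 THP-1 cells, grown to subconfluence, treated with compounds at 10 and 3 μM in DMEM/BSA for 18–20 h. Lysates hybridized with ABCA1-specific probe 16–18 h at 53 °C; QuantiGene branched DNA luminescence gives fold increase over DMSO.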

| SMILES | ABCA1 Induction Fold Increase over DMSO Vehicle [FOLD INCREASE] | fold induction at 10 µM (Homo sapiens, read-out: ABCA1 Induction Fold Increase over DMSO Vehicle) |
| --- | --- | --- |
| COc1cccc2c1OC[C@@H]1[C@H]2Nc2ccc(N3CCS(=O)(=O)CC3)cc2C1(C)C [Number 20, 4-((6aS,12aR)-4-methoxy-7,7-dimethyl-7,12,12a,6a-tetrahydrochromano[4,3-b]quinolin-9-yl)-1,4-thiazaperhydroine-1,1-dione] | 6.5 |  |
| CCOc1cccc2c1OCC1C2Nc2ccc(C(C)=O)cc2C1(C)C (centres unmarked) [Number 42, 1-(4-ethoxy-7,7-dimethyl-7,12,12a,6a-tetrahydrochromano[4,3-b]quinolin-9-yl)ethan-1-one] | 3.8 |  |
| COc1cc(Br)cc2c1OC[C@@H]1[C@@H]2Nc2ccc(-c3nnn[nH]3)cc2C1(C)C [Number 169, (6aS,12aS)-2-bromo-6a,7,12,12a-tetrahydro-4-methoxy-7,7-dimethyl-9-(1H-tetrazol-5-yl)-6H-chromeno[4,3-b]quinoline] |  | 9.7 |
| CCOc1ccc2c(c1)C(C)(C)C1COc3c(OC)ccc(Br)c3C1N2 (centres unmarked) [Number 78, 1-bromo-9-ethoxy-4-methoxy-7,7-dimethyl-7,12,12a,6a-tetrahydrochromano[4,3-b]quinoline] | 2.7 |  |
| CC1(C)c2cc(C(O)(C(F)(F)F)C(F)(F)F)ccc2NC2c3cc(F)cc(F)c3OCC21 (centres unmarked) [Number 67, 2-(2,4-difluoro-7,7-dimethyl(7,12,12a,6a-tetrahydrochromano[4,3-b]quinolin-9-yl))-1,1,1,3,3,3-hexafluoropropan-2-ol] | 3.3 |  |
